Columns and labels:
Format in all cases: cell-based
[1] = tested on: PC3 cells; experiment: Cell morphology and actin cytoskeleton in 2D monolayer culture; details: PC3, 2D, 72h
Protocol: As a control, we also tested morphologies treated with the same panel of anti-invasive compounds 4, 5, 6, 16 and 20 as well as betulin (1) on PC3 cells grown in 2D monolayer cultures (S9 Fig).
Supplementary file pone.0126111.s009.tif: S9 Fig Morphologies of PC-3, LNCaP and Ep156T cells in 2D monolayer culture, exposed 72h to selected betulin derivatives. Actin cytoskeleton (filamentous or F- actin) is stained green (LifeAct), nuclei with a red dye (confocal microscope images, 40× objective, scale bar shown for each panel on the right lower corner). (TIF) Click here for additional data file.

[2] = tested on: PC-3 cells; experiment: Primary 3D screen in Matrigel ECM, morphometric image analysis (AMIDA) of invasion, growth and cell death; details: PC-3 in 3D Matrigel; for anti-invasive effects in 3D culture (in words): 0.03-1 μM
Protocol: Three standard of care compounds widely used against PrCa were added as controls; namely, the androgen receptor antagonist enzalutamide (MDV3100), the C17α-hydroxylase/C17,20-lyase inhibitor abiraterone (Zytiga), and the classic mitotic inhibitor paclitaxel. Treatments started at day 4, when well-differentiated round acini were established.
The live 3D cell cultures were then stained with reactive dyes Calcein AM to detect living, and ethidium homodimer to detect dead cells. Images (Fig 4A) were acquired with confocal microscope and image data were analyzed with the AMIDA software. The principles of morphometric image analysis are briefly outlined in S2 Fig.
Fig 4 Primary 3D screen. PC-3 cells were cultured in 3D Matrigel ECM for 4 days and treated for 6 days with 25 betulin derivatives (from 2D high throughput screens), DMSO/vehicle control, and three reference compounds. A) Representative maximum intensity projections of confocal microscope stack images for selected compound treatments at 300 nM concentration (5× objective, scale 100 μm). B) Three graphs showing the relative impact on three morphometric parameters for 7 betulin derivatives, DMSO control, and one control compound (paclitaxel). […] C) Hierarchical clustering was done using three morphological parameters derived from PC3 organoids: spheroid size (area), complexity and the number of dead cells. D) Wound healing curves of the two betulin derivatives 4 and 20, highlighting the 50% cut-off level (orange dashed line).
Next, statistical analyses were performed to interpret the complex image data (Fig 4B and 4C). For simplicity, we focused on only three, basic morphologic parameters from the multiparametric AMIDA readout (Fig 4B): 1) Area (indicating growth of organoids), 2) structural Complexity (as a measure of the intensity of invasion), and 3) Relative Area of dead cells within organoids (red signal as a measure of cytoxicity or apoptosis). Area (Size of organoids; Fig 4B, upper panel) was measured as the number of pixels within a segmented structure. […] Shape Complexity (Fig 4B, middle panel) was obtained using the structure size (area) and perimeter (number of border pixels). The more regular the shape of an organoid, the closer it is to a perfect circle, thus minimizing the perimeter relative to object size. […] Deviations from this average (residuals) were interpreted as a measure for the shape complexity of organoids. As a logical lower limit for this measure (represented by a perfect circle), we adjusted the intercept (height level) of the regression line to render all returned residuals as positive numbers.
All 3D cultures were done in growth factor-free Matrigel Basement-membrane Matrix (Corning Inc., New York, NY, USA) using 96-well Angiogenesis μ-plates (ibidi GmbH, Munich, Germany) as described before.[38] “Sandwich” assays in short: bottom wells of cooled Angiogenesis plates were filled with 10 μL 4 mg/mL Matrigel, centrifuged for 20 min 200 g and incubated at 37°C temperature for approximately 30–60 min or until the ECM had polymerized. 1,000–1,500 cells were mixed in 2 mg/mL ECM-medium, and 20 μL of cell suspension was added in each well. The plates were centrifuged for 10 min at 100 g, or until the cells had settled on top of the lower ECM. Finally, the outer wells and side reservoirs were filled with water for humidification, and the culture plates placed into the incubator for 3–4 h or overnight. The following day, 60 μL of cell culture medium were added; refreshed every third day by carefully aspirating the medium.

[3] = tested on: LAPC-4; experiment: Secondary 3D screen (spheroid size, complexity, cell death); details: yellow and red clusters
From the text: Next, the 25 selected betulin derivatives depicted in Figs 1–3 including control compounds were again thoroughly tested across the same panel of prostate-derived cell lines already used in the preliminary, 2D high-throughput screen. The resulting dendrograms were either generated separately for each cell line (S4 Fig), combined into a single dendrogram (Fig 5A), or shown as reduced organoid sizes (area; Fig 5B).
Fig 5 Secondary 3D screens. Experimental betulin derivatives and control compounds were tested across a panel of prostate cancer lines (LNCaP, LAPC-4) and non-transformed, prostate epithelial cells (EP156T) in 3D culture. A) The dendrogram is based on three main morphological parameters and combines all data from primary and secondary 3D screens. […] B) Boxplots showing the impact of selected compounds on spheroid size (Area). Data scaling: as described in Fig 4 C) Effects of all betulin derivatives and control compounds on cell death (number of dead cells).
All 3D cultures were done in growth factor-free Matrigel Basement-membrane Matrix (Corning Inc., New York, NY, USA) using 96-well Angiogenesis μ-plates (ibidi GmbH, Munich, Germany) as described before.[38] “Sandwich” assays in short: bottom wells of cooled Angiogenesis plates were filled with 10 μL 4 mg/mL Matrigel, centrifuged for 20 min 200 g and incubated at 37°C temperature for approximately 30–60 min or until the ECM had polymerized. 1,000–1,500 cells were mixed in 2 mg/mL ECM-medium, and 20 μL of cell suspension was added in each well. The plates were centrifuged for 10 min at 100 g, or until the cells had settled on top of the lower ECM. Finally, the outer wells and side reservoirs were filled with water for humidification, and the culture plates placed into the incubator for 3–4 h or overnight. The following day, 60 μL of cell culture medium were added; refreshed every third day by carefully aspirating the medium. This “sandwich” setting allows almost unifocal alignment of cells and 3D structures in a single optical plane, thus reducing the time required for confocal stack imaging.
All control compounds were purchased from Selleck (Munich, Germany), except for staurosporine (Sigma-Aldrich, St. Louis, MO, USA) and Y-27632 (Tocris, Bristol, UK) and dissolved in dimethyl sulfoxide (DMSO) as a vehicle at 10 mM. In the primary and secondary 3D screens, experimental and control compound exposures were performed in triplicates. Four concentrations for each compound were applied (0.03, 0.1, 0.3 and 1 μM). Compound treatments were initiated four days after cell embedding, and continued for six days after which spheroids were stained and imaged.
Supplementary file pone.0126111.s004.eps: S4 Fig Secondary screens. Dendrograms for A) LNCaP, B) LAPC-4, and C) Ep156T betulin screens in 3D culture have been constructed using three main read-outs: spheroid size, spheroid complexity, and cell death. […] (EPS) Click here for additional data file.

[4] = tested on: PC-3; experiment: Wound healing assay in 2D monolayer culture (IncuCyte); details: example for inactive derivatives
Protocol: Cells were cultured on ImageLock plates (Essen Bioscience, Ann Arbor, MI, USA) until fully confluent and scratched with a WoundMaker instrument (Essen Bioscience). All detached cells were removed by aspiration and medium supplemented with experimental compounds was added. Wound closure was monitored and quantified with the IncuCyte live-cell imager (Essen Bioscience).
A) Graph showing the transition of PC-3 spheroids from symmetrical acini to irregular invasive structures over 6 days, as measured by general symmetry (roundness %). […] B) Conventional wound healing assay performed in monolayer culture over a period of 64 hours. Wound closure is measured as relative wound density i.e. percentage of original wound area reclaimed by migrating cells. […] (EPS) Click here for additional data file.

Row | Structure (SMILES) | anti-invasive effects in 3D culture (in words) ([2]; 6 days treatment) | also measured
1 | Oc1ccc2ccccc2c1SSc1c(O)ccc2ccccc12 [IPA3, reference compound] |  | morphology and actin cytoskeleton of cells in 2D monolayer [1]: clear rounding
2 | C=C(C)[C@@H]1CC[C@]2(C(=O)N3CCCCC3)CC[C@]3(C)C(CCC4[C@@]5(C)CCC(=O)C(C)(C)C5CC[C@]43C)C12 (stereo partly drawn) [Compound 13] | None of these compounds showed significant anti-invasive effects | 
3 | C=C(C)[C@@H]1CC[C@]2(C(=O)N3CCCC3)CC[C@]3(C)C(CCC4[C@@]5(C)CCC(=O)C(C)(C)C5CC[C@]43C)C12 (stereo partly drawn) [Compound 11] | None of these compounds showed significant anti-invasive effects | 
4 | C[C@]12CC[C@H](O)CC1=CC[C@@H]1[C@@H]2CC[C@]2(C)C(c3cccnc3)=CC[C@@H]12 [abiraterone, reference compound] |  | effect on morphometric measures (area, complexity, dead cells) ([2]; paclitaxel at 30 and 100 nM): no noticeable effect; efficacy in 3D LAPC-4 culture (dendrogram clusters) [3]: efficacy of all positive controls
5 | C=C(C)[C@@H]1CC[C@]2(C#N)CC[C@]3(C)C(CCC4[C@@]5(C)Cc6nccnc6C(C)(C)C5CC[C@]43C)C12 (stereo partly drawn) [Compound 18, Lupa-2,20(29)-dieno[2,3-b]pyrazino-28-nitrile] | inactive | 
6 | C[C@@H](N)[C@H]1CC[C@H](C(=O)Nc2ccncc2)CC1 [Compound Y-27632, reference compound] |  | morphology and actin cytoskeleton of cells in 2D monolayer [1]: elongation
7 | C=C(C)[C@@H]1CC[C@]2(C(=O)O)CC[C@]3(C)[C@H](CC[C@@H]4[C@@]5(C)CC[C@H](O)C(C)(C)[C@@H]5CC[C@]43C)[C@@H]12 [Compound 1, betulinic acid] | did not show significant anti-invasive effects | morphology and actin cytoskeleton of cells in 2D monolayer [1]: No morphologies and visible effects on the actin cytoskeleton
8 | C=C(C)[C@@H]1CC[C@]2(C(N)=O)CC[C@]3(C)C(CCC4[C@@]5(C)Cc6cnoc6C(C)(C)C5CC[C@]43C)C12 (stereo partly drawn) [Compound 9] | negligible effects on the invasive phenotype | 
9 | C=C(C)[C@@H]1CC[C@]2(C(=O)NCCC)CC[C@]3(C)C(CCC4[C@@]5(C)CCC(=O)C(C)(C)C5CC[C@]43C)C12 (stereo partly drawn) [Compound 12] | None of these compounds showed significant anti-invasive effects | 
10 | C=C(C)[C@@H]1CC[C@]2(C(N)=O)CC[C@]3(C)C(CCC4[C@@]5(C)Cc6nccnc6C(C)(C)C5CC[C@]43C)C12 (stereo partly drawn) [Compound 16] | same high level of anti-invasive effects as compound 15 | concentration at which anti-invasive effects are seen in 3D ([2]; 6 days treatment): 100 nM; efficacy in 3D LAPC-4 culture (dendrogram clusters) [3]: most active; morphology and actin cytoskeleton of cells in 2D monolayer [1]: No morphologies and visible effects on the actin cytoskeleton
11 | C=C(C)[C@@H]1CC[C@]2(C=O)CC[C@]3(C)C(CCC4[C@@]5(C)Cc6cnoc6C(C)(C)C5CC[C@]43C)C12 (stereo partly drawn) [Compound 7] | negligible effects on the invasive phenotype | 
12 | C=C(C)[C@@H]1CC[C@]2(C(=O)N3CCOCC3)CC[C@]3(C)C(CCC4[C@@]5(C)CCC(=O)C(C)(C)C5CC[C@]43C)C12 (stereo partly drawn) [Compound 14] | None of these compounds showed significant anti-invasive effects | 
13 | C=C(C)[C@@H]1CC[C@]2(C(=O)N3CCCCC3)CC[C@]3(C)C(CCC4[C@@]5(C)Cc6nccnc6C(C)(C)C5CC[C@]43C)C12 (stereo partly drawn) [Compound 17] | inactive | 
14 | C=C(C)[C@@H]1CC[C@]2(C(=O)N3CCCCC3)CC[C@]3(C)C(CCC4[C@@]5(C)CC[C@H](O)C(C)(C)C5CC[C@]43C)C12 (stereo partly drawn) [Compound 21] |  | activity in validation (wound healing) in words [4]: inactive
15 | C=C(C)[C@@H]1CC[C@]2(CO)CC[C@]3(C)C(CCC4[C@@]5(C)Cc6cnoc6C(C)(C)C5CC[C@]43C)C12 (stereo partly drawn) [Compound 10] | negligible effects on the invasive phenotype | 
16 | C=C(C)[C@@H]1CC[C@]2(COC(C)=O)CC[C@]3(C)C(CCC4[C@@]5(C)Cc6cnoc6C(C)(C)C5CC[C@]43C)C12 (stereo partly drawn) [Compound 8] | negligible effects on the invasive phenotype | 
